Values of other authors as cited in patent publication US20040229855A1, “Antiglucocorticoids for the treatment of postpartum psychosis” (Corcept Therapeutics, Inc., priority 2003, published 2004).

Tests used:
[1] = in one study (Kawai 1989); cited from earlier work
[2] = target: T1, glucocorticoid receptor (Homo sapiens, UniProt P04150); settings: cited from earlier work
T1 sequence (P04150 1-777): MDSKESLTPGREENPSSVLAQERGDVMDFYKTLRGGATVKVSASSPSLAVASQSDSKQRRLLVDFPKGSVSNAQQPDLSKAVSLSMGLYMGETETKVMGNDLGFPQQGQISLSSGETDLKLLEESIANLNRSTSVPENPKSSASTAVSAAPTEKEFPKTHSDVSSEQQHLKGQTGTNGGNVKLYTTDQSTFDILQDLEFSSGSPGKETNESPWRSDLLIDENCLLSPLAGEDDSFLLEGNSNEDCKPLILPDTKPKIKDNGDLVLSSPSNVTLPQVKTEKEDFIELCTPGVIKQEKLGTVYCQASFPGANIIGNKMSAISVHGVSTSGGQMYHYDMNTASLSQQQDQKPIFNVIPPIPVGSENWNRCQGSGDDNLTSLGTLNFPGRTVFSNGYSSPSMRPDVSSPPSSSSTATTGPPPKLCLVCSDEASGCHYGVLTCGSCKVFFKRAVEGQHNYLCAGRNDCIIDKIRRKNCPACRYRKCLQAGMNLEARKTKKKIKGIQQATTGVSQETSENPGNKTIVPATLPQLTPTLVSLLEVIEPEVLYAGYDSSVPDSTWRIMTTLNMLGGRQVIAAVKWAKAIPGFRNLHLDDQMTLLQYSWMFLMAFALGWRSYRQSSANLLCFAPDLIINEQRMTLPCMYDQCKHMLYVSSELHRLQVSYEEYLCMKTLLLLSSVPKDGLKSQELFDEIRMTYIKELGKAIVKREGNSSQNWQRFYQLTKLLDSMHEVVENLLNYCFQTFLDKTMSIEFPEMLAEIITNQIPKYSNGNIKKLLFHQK

[3] = target: T2, progesterone receptor (Homo sapiens, UniProt P06401); settings: cited from earlier work
T2 sequence (P06401 1-933): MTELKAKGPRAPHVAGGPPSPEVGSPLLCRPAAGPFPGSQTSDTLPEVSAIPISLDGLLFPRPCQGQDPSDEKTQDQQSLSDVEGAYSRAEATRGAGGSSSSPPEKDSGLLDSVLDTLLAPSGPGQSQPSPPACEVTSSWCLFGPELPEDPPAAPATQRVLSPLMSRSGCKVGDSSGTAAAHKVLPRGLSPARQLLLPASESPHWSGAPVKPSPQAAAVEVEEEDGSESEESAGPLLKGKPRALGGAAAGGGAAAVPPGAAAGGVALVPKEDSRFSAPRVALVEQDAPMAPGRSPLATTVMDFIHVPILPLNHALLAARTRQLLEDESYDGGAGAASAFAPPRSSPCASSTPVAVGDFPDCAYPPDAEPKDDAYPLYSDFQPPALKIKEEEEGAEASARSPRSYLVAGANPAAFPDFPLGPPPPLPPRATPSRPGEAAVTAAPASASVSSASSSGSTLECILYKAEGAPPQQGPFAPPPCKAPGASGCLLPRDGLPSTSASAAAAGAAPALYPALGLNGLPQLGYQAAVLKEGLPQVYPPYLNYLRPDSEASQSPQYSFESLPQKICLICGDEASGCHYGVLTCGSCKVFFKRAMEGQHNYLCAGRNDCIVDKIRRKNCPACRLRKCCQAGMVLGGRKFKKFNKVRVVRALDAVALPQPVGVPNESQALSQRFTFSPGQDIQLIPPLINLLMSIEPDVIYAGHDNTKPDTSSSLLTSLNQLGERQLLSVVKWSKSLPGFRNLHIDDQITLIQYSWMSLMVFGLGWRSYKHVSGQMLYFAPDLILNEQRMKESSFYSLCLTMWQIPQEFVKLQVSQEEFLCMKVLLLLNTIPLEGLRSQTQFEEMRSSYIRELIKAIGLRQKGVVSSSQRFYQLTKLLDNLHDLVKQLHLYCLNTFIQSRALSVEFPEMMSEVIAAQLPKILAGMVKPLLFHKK

SMILES | daily dose excreted in the urine [1] | glucocorticoid receptor antagonist activity [2] | progesterone receptor antagonist activity [3]
CC#C[C@]1(O)CC[C@H]2[C@@H]3CCC4=CC(=O)CCC4=C3[C@@H](c3ccc(N(C)C)cc3)C[C@@]21C [mifepristone, 17-β-hydroxy-11-β-(4-dimethyl-aminophenyl)-17-α-(1-propynyl)-estra-4,9-dien-3-one] | less than 0.5% | powerful antagonist | powerful antagonist
CC#C[C@]1(O)CC[C@H]2[C@@H]3CCC4=CC(=O)CCC4=C3[C@@H](c3ccc(OCCN(C)C)cc3)C[C@@]21C [RU009, 11β-(4-dimethylaminoethoxyphenyl)-17α-propynyl-17β-hydroxy-4,9 estradien-3-one] | – | glucocorticoid receptor antagonist effects | –
